System: PBMCs of ten HLA-A2+ healthy subjects
Test: In vitro stimulation of peptide-specific T cells in PBMCs of healthy subjects, IFN-γ release by ELISA
Type: cell-based, human
Settings: PBMCs stimulated 14 days with peptide 20 μg/mL, response to T2 cells pre-loaded with peptide 5 μg/mL
Description: Ten HLA-A2+ prostate cancer patients and ten HLA-A2+ healthy subjects were enrolled in this study after written informed consent was obtained. All protocols were approved by the Institutional Review Board (IRB) of Baylor College of Medicine before commencing studies. 20 mL of peripheral blood was obtained from each person, and peripheral blood mononuclear cells (PBMCs) were isolated by density gradient centrifugation using Lymphoprep (Nycomed Pharma AS; Oslo, Norway). The freshly isolated PBMCs were cryopreserved for later use in 1 mL freezing medium containing 90% FCS and 10% dimethyl sulfoxide (DMSO) at −140° C. The expression of HLA-A2 molecules on PBMCs obtained from cancer patients and healthy subjects was verified by flow cytometry with FITC-labeled HLA-A2 mAb BB7.2 (BD Pharmingen, San Diego, Calif., USA).
PBMCs (1×10^5 cells/well) from either healthy subjects or prostate cancer patients were incubated with standard peptide concentrations of 20 μg/mL per peptide in 96-well U-bottom microplates (BD, Franklin Lakes, N.J., USA) in 200 μL of T-cell medium (TCM), consisting of RPMI 1640 (Mediatech, Manassas, Va., USA), 10% human AB serum (Valley Biomedical, Winchester, USA), 50 μM of 2-mercaptoethanol, 100 U/mL of interleukin-2 (IL-2), and 0.1 mM MEM nonessential amino acid solution (Invitrogen, Grand Island, N.Y., USA). Half of the TCM was removed and replaced with fresh TCM containing peptides (20 μg/mL) every 5 days. After 14 days of culture, the cells were harvested and tested for their ability to produce IFN-γ in response to T2 cells (1×10^4 cells/well), which were pre-loaded with either PSGR peptide (5 μg/mL) or a control peptide (an irrelevant HL-A2 binding peptide: NLLTHVESL) as a negative control. After 18 hours of incubation, supernatants were collected, and IFN-γ release was determined by ELISA assay.
Cytokine release was measured by coating 96-well ELISA plates (Thermo Fisher Scientific; Rochester, N.Y., USA) with 1 μg/mL anti-human IFN-γ (Pierce Biotechnology; Rockford, Ill., USA) overnight at 4° C. The plate was washed six times with PBS containing 0.05% Tween-20 (wash solution) to remove unbound coating antibody, and blocked with 1% BSA/PBS at room temperature for 2 hrs. Afterwards, 50 μL supernatant was added to each well and incubated at room temperature for 1 hr, then 50 μL of 0.5 μg/mL biotinylated anti-human IFN-γ (Pierce Biotechnology; Rockford, Ill., USA) was added and plates were incubated for an additional 1 hr at room temperature. After incubation, plates were washed and incubated for 30 min with Poly-HRP-Streptavidin (Thermo Fisher Scientific; Rochester, N.Y., USA) diluted 1:5000 in PBS/1% BSA. Plates were washed and 100 μL of TMB substrate solution (Sigma-Aldrich Co.; St. Louis, Mo., USA) was added per well. The colorimetric reaction was stopped using 2N H2SO4 and plates were read at 450 nm using an ELISA plate reader.
To determine whether PSGR-reactive T cell precursors are present in healthy subjects, we obtained PBMCs from 10 HLA-A2+ healthy donors and stimulated them in vitro with each of the 21 PSGR-derived peptides containing HLA-A2-binding motif (Table 1). After 2 weeks of peptide stimulation, supernatants from peptide-stimulated T cells were analyzed by ELISA assay to detect IFN-γ release in response to T2 cells pulsed with or without corresponding peptides.

Sequence | concentrations of IFN-γ in the supernatants (healthy subject #1) | concentrations of IFN-γ in the supernatants (healthy subject #2) | concentrations of IFN-γ in the supernatants (healthy subject #3) | concentrations of IFN-γ in the supernatants (healthy subject #4) | concentrations of IFN-γ in the supernatants (healthy subject #5) | concentrations of IFN-γ in the supernatants (healthy subject #6)
KLACDDIRV (PSGR2) | 0 pg/mL | 0 pg/mL | 455 pg/mL | 0 pg/mL | 0 pg/mL | 0 pg/mL
VLNPIVYGV (PSGR1) | 195 pg/mL | 0 pg/mL | 0 pg/mL | 0 pg/mL | 0 pg/mL | 281 pg/mL
FIFYVPFIGL (PSGR22) | 289 pg/mL | 0 pg/mL | 0 pg/mL | 0 pg/mL | 0 pg/mL | 0 pg/mL
YLIAVLGNLT (PSGR16) | 602 pg/mL | 0 pg/mL | 0 pg/mL | 0 pg/mL | 163 pg/mL | 0 pg/mL
CMLSGIDILI (PSGR17) | 0 pg/mL | 0 pg/mL | 0 pg/mL | 0 pg/mL | 0 pg/mL | 0 pg/mL
SLHEPMYIFL (PSGR19) | 0 pg/mL | 0 pg/mL | 0 pg/mL | 0 pg/mL | 195 pg/mL | 0 pg/mL
YVPFIGLSMV (PSGR24) | 0 pg/mL | 0 pg/mL | 0 pg/mL | 0 pg/mL | 0 pg/mL | 0 pg/mL
GLEEAQFWLA (PSGR12) | 0 pg/mL | 139 pg/mL | 0 pg/mL | 246 pg/mL | 0 pg/mL | 432 pg/mL
CLHQDVMKL [PSGR7] | 0 pg/mL | 0 pg/mL | 0 pg/mL | 0 pg/mL | 168 pg/mL | 0 pg/mL
SLLISFSYLL (PSGR10) | 917 pg/mL | 0 pg/mL | 0 pg/mL | 0 pg/mL | 0 pg/mL | 0 pg/mL
ALMAPLPVFI (PSGR13) | 0 pg/mL | 0 pg/mL | 0 pg/mL | 0 pg/mL | 0 pg/mL | 0 pg/mL
LLAMAFDRYV (PSGR20) | 0 pg/mL | 0 pg/mL | 0 pg/mL | 0 pg/mL | 0 pg/mL | 0 pg/mL
HVCAVFIFYV (PSGR11) | 0 pg/mL | 0 pg/mL | 0 pg/mL | 0 pg/mL | 0 pg/mL | 0 pg/mL
LLQMFAIHSL (PSGR18) | 176 pg/mL | 0 pg/mL | 0 pg/mL | 0 pg/mL | 0 pg/mL | 0 pg/mL
TLPRVTKIGV (PSGR23) | 0 pg/mL | 0 pg/mL | 0 pg/mL | 0 pg/mL | 0 pg/mL | 0 pg/mL
YLLILKTVL (PSGR5) | 0 pg/mL | 0 pg/mL | 0 pg/mL | 0 pg/mL | 0 pg/mL | 0 pg/mL
VLGNLTIIYI (PSGR21) | 0 pg/mL | 291 pg/mL | 0 pg/mL | 0 pg/mL | 300 pg/mL | 377 pg/mL
LLILKTVLGL (PSGR15) | 0 pg/mL | 0 pg/mL | 456 pg/mL | 0 pg/mL | 0 pg/mL | 0 pg/mL

Reference: patent US10722563B2, “Prostate-specific tumor antigens and uses thereof” (SHENZHEN INNOVATION IMMUNOTECHNOLOGY CO., LTD., priority 2012, dated 2020)
